“And” between values parts separate entries of the source, which are not always exact repeats. Identical values can stand only once. Marks after values point to notes of the source that are not given here.
Legend:
Assay type in all cases: in vivo, Sprague Dawley rats
[1] = test system: rats on 60% fructose diet; test: Biochemical measurements of serum and urine in fructose-fed rats; conditions: for serum uric acid (change in words): FIG. 2A; for serum uric acid (change in words) / serum triglycerides (change in words): weeks 4, 14, 20; for serum triglycerides (change in words): FIG. 2D
Procedure: (§1) Male Sprague Dawley rats (150-200 g, Charles River Inc., Wilmington, Mass.) were placed on a standard natural ingredient diet (catalog #7912, Harlan, Wis.) for a five day run-in period with collection of basal blood and urine. Rats were then divided into 5 groups with similar body weight and baseline blood chemistry (n=8 each group).
(§2) Group 3 (F+HCTZ): 60% fructose diet plus hydrochlorothiazide (HCTZ, Sigma-Aldrich, St. Louis, Mo.) 10 mg/kg/day dissolved in drinking water
(§3) We monitored serum K^+ and increased the concentration of KCL at week 5 (1.5% KCL), week 15 (1.75% KCL) and week 17 (2% KCL) to maintain normal k^+ level in serum through the whole study.
(§4) Group 5 (F+HCTZ+Allopurinol): 60% fructose diet plus the same dose of HCTZ and allopurinol 150 mg/L dissolved in drinking water
(§5) Rats were weighed weekly and housed separately in metabolic cages for overnight collection of urine (over 18 hrs) with free access to water and no food on weeks 4, 14 and 20. Four hour fasting serum was also collected from the tail vein within the same week of urine collection. At the end of week 20, rats were sacrificed.
Serum and urine K^+ concentrations were determined with the atomic absorption spectrophotometer (Perkin-Elmer 306). Routine chemistries (including serum glucose, cholesterol, triglycerides, blood urea nitrogen (BUN), sodium, chloride, bicarbonate (HCO3^−) and magnesium (Mg^++); serum and urine creatinine (Cr), uric acid and urine protein concentration) were measured using an autoanalyzer (VetAce, Alfa Wassermann, Inc., West Caldwell, N.J.).

[2] = test system: rats on 60% fructose diet; test: Tail cuff systolic blood pressure measurement in fructose-fed rats; conditions: for systolic blood pressure (SBP): conscious rats, mean±SD
Procedure: as §1, §2, §3, §4
Systolic blood pressure (SBP) measurement was performed in conscious rats with the use of a tail-cuff sphygmomanometer (Visitech BP2000, Visitech Systems, Apex, N.C.) at weeks 4 and 16. After three time periods of preconditioning, rats were placed in prewarmed chambers (37° C.) for 10-15 min, the pressure and pulse were measured by an automatic tail-cuff inflater and a built-in transducer. The mean of three stable BP readings was used.

[3] = test system: rats on 60% fructose diet; test: Measurement of urinary nitric oxide (nitrate/nitrite); conditions: FIG. 5
Excerpt: as §1, §5
Urine was determined NO by using the nitrate/nitrite colorimetric assay kit (Cayman Chemical Company, MI). The kit measures NO reaction products, total nitrate and nitrite concentrations with a modified two-step Griess reaction.

[4] = test system: rats on 60% fructose diet; test: Serum insulin and Quantitative Insulin Sensitivity Check Index (QUICKI); conditions: for QUICKI / insulin sensitivity (in words): week 14, FIG. 3
Procedure: as §1
Fasting serum glucose and insulin were obtained at week 14 and used to calculate the QUICKI value. Serum insulin was determined by using the rat insulin ELISA kit (Crystal Chem, Chicago, Ill.) which can detect serum insulin in the range of 156-10,000 pg/ml and has the 3.5% intra-assay and 6.3% inter-assay precision. QUICKI is a mathematical model based on log-transformed fasting plasma glucose and insulin values by equal 1/(log [glucose]+log [insulin]). QUICKI predicts insulin sensitivity with lower values representing more insulin resistance.

[5] = test system: rats on 60% fructose diet; test: Insulin tolerance test (ITT); conditions: week 18, 0.75 U/kg insulin i.p., FIG. 4
Procedure: as §1
At week 18, the ITT was performed on animals fasted for 16 hours by administering 0.75 U/kg recombinant human insulin (Novolin; Novo Nordisk, Princeton, N.J.) via intraperitoneal injection. Blood glucose was determined on tail blood via hand-held blood glucose monitor (OneTouch, Johnson & Johnson) at 5 points; before insulin injection, and at 15, 30, 45 and 60 minutes after insulin injection.

## NS(=O)(=O)c1cc2c(cc1Cl)NCNS2(=O)=O [F+HCTZ, hydrochlorothiazide]
[1]
  serum uric acid (change in words): greater hyperuricemia
  serum triglycerides (change in words): higher in the F+HCTZ group but did not reach statistical significance
[1]; listed as Hydrochlorothiazide
  serum uric acid (change in words): more hyperuricemia
[1]; FIG. 2B, weeks 14 and 20
  serum glucose (change in words): hyperglycemia
[1]; FIG. 2C
  serum cholesterol (change in words): numerical higher
[1]; listed as hydrochlorothiazide
  serum triglycerides (change in words): numerical higher
[1]; Table 1, mean±SD
  Uric acid clearance: 0.08 ± 0.03 ^& ml/min
  Urine protein/Cr: 2.53 ± 2.3
  Urine uric acid: 2.93 ± 1.0 ^& mg/day
[1]; Table 1, serum, week 20, mean±SD
  Cr: 0.46 ± 0.11 mg/dL
[1]; rat, in vivo
  BUN: 26.6 ± 14 *^, & mg/dL
  Serum K^+: 4.0 ± 0.1 *^, &, # mEq/L
  Serum Mg^++: 1.15 ± 0.1*^, & mEq/L
  serum HCO3^−: 24.7±1.1 mEq/L
  serum K^+ (in words): significantly lower
[1]; week 14 (implied by sentence), mean±SD
  serum uric acid: 2.69 ± 0.47 mg/dL
[1]; week 14, 4 h fasting serum, mean±SD
  serum glucose: 176 ± 13.3 mg/dL
[1]; week 14, mean±SD
  serum triglycerides: 492 ± 154 mg/dL
[1]; week 20, 4 h fasting serum, mean±SD
  serum glucose: 186 ± 21.9 mg/dL and 186 ± 22 mg/dL
[1]; week 20, mean±SD
  serum glucose: 186 ± 22 mg/dL
  serum triglycerides: 489 ± 178 mg/dL
  serum uric acid: 2.76 ± 0.59 mg/dL
[2]; FIG. 1, weeks 4 and 16
  effect on systolic blood pressure (in words): reduced the systolic blood pressure
[2]; week 4, tail cuff
  systolic blood pressure (SBP): 129±4.6 mmHg
[2]; week 16, tail cuff
  systolic blood pressure (SBP): 136±3.7 mmHg
[3]
  urine nitrate/nitrite excretion (in words): even lower nitrite excretion
[3]; listed as Hydrochlorothiazide
  urine nitrate/nitrite excretion (in words): more reduction of urine nitrate and nitrite
[4]; listed as HCTZ
  QUICKI / insulin sensitivity (in words): significantly lower
[4]; listed as hydrochlorothiazide
  QUICKI / insulin sensitivity (in words): significant lower insulin sensitivity
[4]; week 14, rat insulin ELISA, mean±SD
  serum insulin concentration: 3449 ± 1200 pg/mL
[5]
  blood glucose response to intraperitoneal insulin in ITT (in words): maintained elevated serum glucose in response to insulin
[5]; listed as hydrochlorothiazide
  blood glucose response to intraperitoneal insulin in ITT (in words): no change of blood glucose
